# Assay results: patent US4920103A, “Modifications of mycinose and 3-O-demethylmycinose in tylosin-type macrolides” (Eli Lilly and Company, priority 1986, dated 1990)
# Read-outs that look alike come from different tables or passages of the source.
# Assays:
# [1] = tested on: Streptococcus pneumoniae Park I; experiment: MIC, standard agar-dilution assay, S. pneumoniae Park I; format: cell-based; conditions: Streptococcus pneumoniae
# Procedure: (§1) The MIC's in Table II were determined by standard agar-dilution assays. The MIC's in Table III were obtained using conventional broth-dilution microtiter tests.
# [2] = tested on: Streptococcus pyogenes C203; experiment: MIC, standard agar-dilution assay, S. pyogenes C203; format: cell-based; conditions: Streptococcus pyogenes, C203
# Procedure: as §1
# [3] = tested on: Streptococcus pyogenes C203; experiment: Protection of mice experimentally infected with Streptococcus pyogenes C203; format: in vivo; conditions: Streptococcus pyogenes, doses given 1 and 4 hours postinfection, read-out: ED50
# Procedure: The formula 1 compounds have shown in vivo antimicrobial activity against experimentally-induced infections in laboratory animals. When two doses of test compound were administered to mice experimentally infected with Streptococcus pyogenes C203, the activity observed was measured as an ED50 value [effective dose in mg/kg to protect 50% of the test animals: see Warren Wick, et al., J. Bacteriol. 81, 233-235 (1961)].
# ^a mg/kg × 2; doses given 1 and 4 hours postinfection
# [4] = tested on: Streptococcus Group D X66; experiment: MIC, standard agar-dilution assay, Streptococcus Group D X66; format: cell-based
# Procedure: as §1
# [5] = tested on: Pseudomonas aeruginosa X239; experiment: MIC, standard agar-dilution assay, P. aeruginosa X239; format: cell-based; conditions: agar-dilution, read-out: MIC
# Procedure: as §1
# [6] = tested on: Staphylococcus aureus S13E; experiment: MIC, standard agar-dilution assay, S. aureus S13E; format: cell-based
# Procedure: as §1
# [7] = tested on: Streptococcus Group D 2041; experiment: MIC, standard agar-dilution assay, Streptococcus Group D 2041; format: cell-based; conditions: GROUPD2041
# Procedure: as §1
# [8] = tested on: Staphylococcus epidermidis EPI1; experiment: MIC, standard agar-dilution assay, S. epidermidis EPI1; format: cell-based
# Procedure: as §1
# Escherichia coli EC14 = experiment: MIC, standard agar-dilution assay, E. coli EC14; format: cell-based; conditions: agar-dilution, read-out: MIC
# Procedure: as §1
# [9] = tested on: Staphylococcus aureus X400; experiment: MIC, standard agar-dilution assay, S. aureus X400; format: cell-based
# Procedure: as §1
# [10] = tested on: Staphylococcus aureus V41; experiment: MIC, standard agar-dilution assay, S. aureus V41; format: cell-based; conditions: Staphylococcus aureus, V41
# Procedure: as §1
# [11] = tested on: Klebsiella pneumoniae X68; experiment: MIC, standard agar-dilution assay, K. pneumoniae X68; format: cell-based; conditions: agar-dilution, read-out: MIC
# Procedure: as §1
# [12] = tested on: Staphylococcus aureus X1.1; experiment: MIC, standard agar-dilution assay, S. aureus X1.1; format: cell-based
# Procedure: as §1
# [13] = tested on: Staphylococcus epidermidis 222; experiment: MIC, standard agar-dilution assay, S. epidermidis 222; format: cell-based
# Procedure: as §1
# [14] = tested on: Haemophilus influenzae C.L.; experiment: MIC, standard agar-dilution assay, H. influenzae C.L.; format: cell-based; conditions: agar-dilution, ampicillin-sensitive strain, read-out: MIC
# Procedure: as §1
# [15] = tested on: Haemophilus influenzae 76; experiment: MIC, standard agar-dilution assay, H. influenzae 76; format: cell-based; conditions: agar-dilution, ampicillin-resistant strain, read-out: MIC
# Procedure: as §1
Structure (SMILES),MIC [1] [mg/L],MIC [2] [mg/L],"ED50 ([3]; C203, oral) [mg/kg]","ED50 ([3]; C203, sc, subcutaneous) [mg/kg]",MIC [4] [mg/L],MIC [5] [mg/L],MIC [6] [mg/L],MIC [7] [mg/L],MIC [8] [mg/L],MIC (Escherichia coli EC14) [mg/L],MIC [9] [mg/L],MIC [10] [mg/L],MIC [11] [mg/L],MIC [12] [mg/L],MIC [13] [mg/L],MIC [14] [mg/L],"MIC ([1]; agar-dilution, read-out: MIC) [mg/L]",MIC [15] [mg/L],"MIC ([2]; agar-dilution, read-out: MIC) [mg/L]","MIC ([7]; agar-dilution, read-out: MIC) [mg/L]"
"CCC1OC(=O)CC(O)C(C)C(OC2OC(C)C(O)C(N(C)C)C2O)C(CCOc2ccccc2)CC(C)C(=O)C=CC(C)=CC1COC1OC(C)C(OC)C(O)C1OC (stereo not shown) [Compound 50, 4""-O-Methyl-20-DH-20-O-phenyl-lactenocin]",8,4,75.3,> 10,16,> 128,0.5,32,0.5,> 128,0.5,0.5,> 128,0.5,0.25,128,–,–,–,–
"CCC1OC(=O)CC(O)C(C)C(OC2OC(C)C(O)C(N(C)C)C2O)C(CCOc2ccccc2)CC(C)C(=O)C=CC(C)=CC1COC1OC(C)C(OS(C)(=O)=O)C(OC)C1OC (stereo not shown) [Compound 15, 4""-O-Methanesulfonyl-20-DH-20-O-Phenyl-desmycosin]",–,4,29.3,> 10,16,> 128,2,32,2,> 128,2,2,> 128,2,1,128,8,128,–,–
"CCC1OC(=O)CC(O)C(C)C(OC2OC(C)C(O)C(N(C)C)C2O)C(CCOc2ccccc2)CC(C)C(=O)C=CC(C)=CC1COC1OC(C)C(NC(C)=O)C(OC)C1OC (stereo not shown) [Compound 37, 4""-Acetylamino-4""-deoxy-20-DH-20-O-phenyl-desmycosin]",4,–,–,–,64,> 128,4,–,8,> 128,4,4,> 128,8,8,> 128,–,> 128,2,128
"CCC1OC(=O)CC(O)C(C)C(OC2OC(C)C(O)C(N(C)C)C2O)C(CCOc2ccccc2)CC(C)C(=O)C=CC(C)=CC1COC1OC(C)C(NCc2ccccc2)C(OC)C1OC (stereo not shown) [Compound 47, 4""-Benzylamino-4""-deoxy-20-DH-20-O-phenyl-desmycosin]",2,2,70.7,> 10,8,> 128,2,32,2,> 128,2,2,> 128,2,2,128,–,128,–,–
"CCC1OC(=O)CC(O)C(C)C(OC2OC(C)C(O)C(N(C)C)C2O)C(CCOc2ccccc2)CC(C)C(=O)C=CC(C)=CC1COC1OC(C)C(N2CCCCC2)C(OC)C1OC (stereo not shown) [Compound 42, 4""-Deoxy-20-DH-20-O-phenyl-4""-(piperidin-1-yl)desmycosin]",2,2,> 100,> 10,16,> 128,2,32,4,> 128,4,4,> 128,4,2,> 128,–,> 128,–,–
